Data as given in ChEMBL document CHEMBL5620430, “Design, synthesis and biological evaluation of indazole derivatives as selective covalent inhibitors of FGFR4 in wild-type and gatekeeper mutants” (Eur J Med Chem, 2023).
Calls of active or inactive are those of the source. The rule behind the calls is not given here.

Columns and labels:
[1] = tested on: Huh-7; experiment: Antitumor activity against human Huh-7 cells xenografted in ip dosed NSG mouse assessed as decrease in tumor weight administered twice per day for 2 weeks; format: functional, organism-based; conditions: dose 20-40 mg/kg
[2] = Tmax in Sprague-Dawley rat at 2 mg/kg, iv by LC-MS/MS analysis; format: ADME, organism-based; conditions: in vivo
[3] = Tmax in Sprague-Dawley rat at 10 mg/kg, po by LC-MS/MS analysis; format: ADME, organism-based; conditions: in vivo
[4] = tested on: Huh-7; experiment: Antitumor activity against human Huh-7 cells xenografted in ip dosed NSG mouse assessed as decrease in FGFR4 phosphorylation level administered twice per day for 2 weeks; format: functional, organism-based; conditions: dose 20-40 mg/kg
[5] = target: T1, Fibroblast growth factor receptor 4 (Homo sapiens, UniProt P22455); experiment: Inhibition of FGFR4 phosphorylation in human Huh-7 cells at 120 nM by Western blot analysis; format: cell-based
Target sequence in this assay (P22455 22-802 limits assumed): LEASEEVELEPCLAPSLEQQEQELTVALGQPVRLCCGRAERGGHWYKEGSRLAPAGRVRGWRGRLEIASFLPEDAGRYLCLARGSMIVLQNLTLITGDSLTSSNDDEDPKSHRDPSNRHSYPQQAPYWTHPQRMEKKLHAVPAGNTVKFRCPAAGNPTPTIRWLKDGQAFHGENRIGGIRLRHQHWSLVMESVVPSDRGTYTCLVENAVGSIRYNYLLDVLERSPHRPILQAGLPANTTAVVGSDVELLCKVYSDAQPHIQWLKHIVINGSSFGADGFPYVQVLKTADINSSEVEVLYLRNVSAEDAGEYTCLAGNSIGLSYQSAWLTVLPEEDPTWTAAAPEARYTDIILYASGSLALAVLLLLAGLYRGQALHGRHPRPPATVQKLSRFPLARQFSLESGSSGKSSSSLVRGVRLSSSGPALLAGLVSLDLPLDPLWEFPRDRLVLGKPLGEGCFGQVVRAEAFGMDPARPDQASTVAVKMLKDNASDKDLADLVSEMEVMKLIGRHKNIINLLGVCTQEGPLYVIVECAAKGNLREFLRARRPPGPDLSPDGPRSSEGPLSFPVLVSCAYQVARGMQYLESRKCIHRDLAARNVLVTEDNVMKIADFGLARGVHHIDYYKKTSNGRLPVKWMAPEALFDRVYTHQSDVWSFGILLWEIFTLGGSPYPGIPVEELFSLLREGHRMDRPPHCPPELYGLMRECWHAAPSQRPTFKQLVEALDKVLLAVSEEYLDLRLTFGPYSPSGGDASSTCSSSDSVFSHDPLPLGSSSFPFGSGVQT

[6] = AUC (0 to t) in Sprague-Dawley rat at 10 mg/kg, po by LC-MS/MS analysis; format: ADME, organism-based; conditions: in vivo
[7] = target: T1, Fibroblast growth factor receptor 4; experiment: Inhibition of FGFR4 in human Huh-7 cells assessed as inhibition of ERK1/2 phosphorylation incubated for 2 hrs followed by compound washout and measured upto 8 hrs by Western blot analysis; format: cell-based
Target sequence in this assay (P22455 22-802 limits assumed): as above

[8] = target: T1, Fibroblast growth factor receptor 4; experiment: Inhibition of FGFR4 in human Huh-7 cells assessed as inhibition of MEK phosphorylation incubated for 2 hrs followed by compound washout and measured upto 8 hrs by Western blot analysis; format: cell-based
Target sequence in this assay (P22455 22-802 limits assumed): as above

[9] = target: T1, Fibroblast growth factor receptor 4
Target sequence in this assay (P22455 whole entry): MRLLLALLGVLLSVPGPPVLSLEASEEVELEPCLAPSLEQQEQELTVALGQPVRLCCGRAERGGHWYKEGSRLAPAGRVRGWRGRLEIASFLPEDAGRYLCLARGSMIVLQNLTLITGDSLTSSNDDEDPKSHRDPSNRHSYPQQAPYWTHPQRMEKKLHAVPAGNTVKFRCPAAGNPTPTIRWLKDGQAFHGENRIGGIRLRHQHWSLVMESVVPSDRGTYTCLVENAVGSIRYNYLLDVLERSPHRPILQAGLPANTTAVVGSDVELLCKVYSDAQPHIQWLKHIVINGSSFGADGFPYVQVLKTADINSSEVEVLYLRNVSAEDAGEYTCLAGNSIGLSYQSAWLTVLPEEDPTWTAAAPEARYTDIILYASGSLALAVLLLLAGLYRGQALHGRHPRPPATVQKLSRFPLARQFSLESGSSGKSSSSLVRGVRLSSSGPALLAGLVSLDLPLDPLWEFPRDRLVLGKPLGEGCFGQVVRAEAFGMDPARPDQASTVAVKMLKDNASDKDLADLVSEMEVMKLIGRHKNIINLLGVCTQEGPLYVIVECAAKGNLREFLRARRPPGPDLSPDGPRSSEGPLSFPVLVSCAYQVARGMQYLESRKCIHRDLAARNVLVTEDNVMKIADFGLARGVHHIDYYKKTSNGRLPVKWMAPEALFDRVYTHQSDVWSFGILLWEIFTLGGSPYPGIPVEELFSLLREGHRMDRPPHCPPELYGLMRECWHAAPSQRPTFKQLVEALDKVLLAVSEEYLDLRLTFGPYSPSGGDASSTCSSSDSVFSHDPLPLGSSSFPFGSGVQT
Description: Inhibition of FGFR4 (445 to 753 residues) (unknown origin) expressed in Escherichia coli

[10] = target: Fibroblast growth factor receptor 1 (Homo sapiens, UniProt P11362)
Sequence of Fibroblast growth factor receptor 1 (P11362 whole entry): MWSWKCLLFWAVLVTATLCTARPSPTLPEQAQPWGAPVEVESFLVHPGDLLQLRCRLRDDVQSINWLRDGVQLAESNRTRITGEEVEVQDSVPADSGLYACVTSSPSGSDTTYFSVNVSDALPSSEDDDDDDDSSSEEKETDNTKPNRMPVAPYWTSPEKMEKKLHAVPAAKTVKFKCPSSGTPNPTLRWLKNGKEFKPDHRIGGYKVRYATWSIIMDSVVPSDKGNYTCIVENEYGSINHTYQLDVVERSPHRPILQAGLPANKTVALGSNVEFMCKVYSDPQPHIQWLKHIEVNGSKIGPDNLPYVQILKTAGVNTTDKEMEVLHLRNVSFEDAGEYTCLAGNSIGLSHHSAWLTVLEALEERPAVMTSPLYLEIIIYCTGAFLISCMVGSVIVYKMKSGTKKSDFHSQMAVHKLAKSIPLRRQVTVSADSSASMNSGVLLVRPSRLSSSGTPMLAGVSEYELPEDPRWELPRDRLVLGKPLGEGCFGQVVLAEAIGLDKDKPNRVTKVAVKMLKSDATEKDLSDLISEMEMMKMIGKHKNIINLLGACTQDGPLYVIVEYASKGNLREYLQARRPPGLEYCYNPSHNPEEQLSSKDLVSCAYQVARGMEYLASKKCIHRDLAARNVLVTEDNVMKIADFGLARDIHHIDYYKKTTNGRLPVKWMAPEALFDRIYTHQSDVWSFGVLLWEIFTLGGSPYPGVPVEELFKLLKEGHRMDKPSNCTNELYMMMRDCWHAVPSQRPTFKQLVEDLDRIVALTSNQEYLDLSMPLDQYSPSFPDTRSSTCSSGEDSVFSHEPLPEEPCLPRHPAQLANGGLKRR
Description: Inhibition of FGFR1 (unknown origin)

[11] = Antiproliferative activity against human L02 cells measured after 24 to 48 hrs by MTT assay; format: toxicity, cell-based
[12] = Half life in Sprague-Dawley rat at 2 mg/kg, iv by LC-MS/MS analysis; format: ADME, organism-based; conditions: in vivo
[13] = Toxicity in NSG mouse assessed as effect on ALB level at 20 to 40 mg/kg […]; format: organism-based; conditions: in vivo, dose 20-40 mg/kg
[14] = target: T1, Fibroblast growth factor receptor 4; experiment: Inhibition of FGFR4 in human Huh-7 cells assessed as inhibition of MEK phosphorylation measured after 2 hrs by Western blot analysis; format: cell-based
Target sequence in this assay (P22455 22-802 limits assumed): as the sequence (P22455 22-802 limits assumed) above

[15] = Toxicity in NSG mouse assessed as effect on CK level at 20 to 40 mg/kg […]; format: organism-based; conditions: in vivo, dose 20-40 mg/kg

C=CC(=O)Nc1cc2c(cc1-c1n[nH]c3ccc(O[C@H](C)c4c(Cl)cncc4Cl)cc13)CCN(C)C2
Activity [1]: Dose-Dependent Effect
Tmax [2]: 4.8 min
Tmax [3]: 1.67 h
Activity [4]: Dose-Dependent Effect
inhibition [5]: Active
AUC(0-t) [6]: 13 ng·h/mL
inhibition [7]: Active
inhibition [8]: Active
IC50 [9]: 2.4 nM
IC50 [10]: > 3000 nM
IC50 [11]: > 10000 nM
half-life [12]: 7 h
Activity [13]: Non-Toxic
inhibition [14]: Dose-Dependent Effect
Activity [15]: Non-Toxic
